Molecular target: B-Raf (V600E)-kinase (Homo sapiens (Human), UniProt P15056, V600E)
Assay: Kinase test B-Raf (V600E)
Format: biochemical
Settings: 1 h preincubation, 250 μM ATP
Experimental: In a dilution series 10 μL/well of test substance solution are placed in a multiwell plate. The dilution series is selected so that generally a range of concentrations of 2 μM to 0.119 nM or 0.017 nM is covered. If necessary the initial concentration of 2 μM is changed to 50 μM, 10 μM or 0.4 μM or 0.2857 μM and further dilution is carried out accordingly. The final concentration of DMSO is 5%. 10 μL/well of the B-Raf (V600E)-kinase solution are pipetted in (containing 0.5 ng B-Raf (V600E)-kinase (e.g. from Upstate) in 20 mM Tris-HCl pH 7.5, 0.1 mM EDTA, 0.1 mM EGTA, 0.286 mM sodium orthovanadate, 10% glycerol, 1 mg/mL bovine serum albumin, 1 mM dithiothreitol) and the mixture is incubated for 1 h at RT under with shaking. The kinase reaction is started by the addition of 20 μL/well ATP solution [final concentration: 250 μM ATP, 30 mM Tris-HCl pH 7.5, 0.02% Brij, 0.2 mM sodium orthovanadate, 10 mM magnesium acetate, 0.1 mM EGTA, phosphatase cocktail (Sigma, #P2850, dilution recommended by the manufacturer)] and 10 μL/well MEK1 solution [containing 50 ng biotinylated MEK1 (prepared from purified MEK1 according to standard procedure, e.g. with EZ-Link Sulpho-NHS-LC-Biotin reagent, Pierce, #21335)] and carried out for 60 min at RT with constant shaking. The reaction is stopped by the addition of 12 μL/well of a 100 mM EDTA solution and incubation is continued for a further 5 min. 55 μL/well of the reaction solution are transferred into a streptavidin-coated plate (e.g. Streptawell HighBond, Roche, #11989685001) and shaken gently for 1 h at RT, in order to bind biotinylated MEK1 to the plate. After elimination of the liquid the plate is washed five times with 200 μL/well of 1×PBS and 100 μL/well solution of primary antibody plus europium-labelled secondary antibody [Anti Phospho-MEK (Ser217/221), Cell Signaling, #9121 and Eu-N1 labelled goat-anti-rabbit antibody, Perkin Elmer, #AD0105] is added, the primary antibody is diluted 1:2000 and the secondary antibody is diluted to 0.4-0.5 μg/mL in Delfia Assay Buffer (Perkin Elmer, #1244-111). After 1 h shaking at RT the solution is poured away and washed five times with 200 μL/well Delfia Wash Buffer (Perkin Elmer, #4010-0010/#1244-114). After the addition of 200 μL/well Enhancement Solution (Perkin Elmer, #4001-0010/#1244-105) the mixture is shaken for 10 min at RT and then measured in a Wallac Victor using the program “Delfia Time Resolved Fluorescence (Europium)”. IC50 values are obtained from these dosage-activity curves using a software program (GraphPadPrizm).

B-Raf (V600E)-kinase, sequence (P15056 whole entry V600E): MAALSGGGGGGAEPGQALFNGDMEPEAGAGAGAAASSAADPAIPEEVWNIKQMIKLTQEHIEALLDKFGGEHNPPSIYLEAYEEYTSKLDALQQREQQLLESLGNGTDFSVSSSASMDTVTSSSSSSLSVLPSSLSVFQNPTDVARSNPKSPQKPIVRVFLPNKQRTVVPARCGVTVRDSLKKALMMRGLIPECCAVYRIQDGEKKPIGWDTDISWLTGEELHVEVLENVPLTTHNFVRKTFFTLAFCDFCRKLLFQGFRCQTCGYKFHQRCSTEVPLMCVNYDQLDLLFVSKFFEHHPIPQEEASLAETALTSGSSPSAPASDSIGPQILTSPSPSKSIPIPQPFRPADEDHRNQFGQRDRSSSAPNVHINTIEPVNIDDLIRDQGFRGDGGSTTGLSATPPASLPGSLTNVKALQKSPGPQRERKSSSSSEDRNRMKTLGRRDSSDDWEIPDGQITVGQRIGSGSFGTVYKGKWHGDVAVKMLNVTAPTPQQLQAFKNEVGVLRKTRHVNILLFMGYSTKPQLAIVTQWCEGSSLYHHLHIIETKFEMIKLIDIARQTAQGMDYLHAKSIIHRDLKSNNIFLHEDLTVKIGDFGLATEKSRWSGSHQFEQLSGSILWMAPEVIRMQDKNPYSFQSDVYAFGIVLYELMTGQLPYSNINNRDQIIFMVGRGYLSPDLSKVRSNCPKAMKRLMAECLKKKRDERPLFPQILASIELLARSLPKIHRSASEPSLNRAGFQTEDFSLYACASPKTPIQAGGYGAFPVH

Structure (SMILES) | IC50 [nM]
CCCN1CCN(c2cncc(-c3cn(-c4cc(C(=O)Nc5cc(C(C)(C)C)on5)ccc4C)nn3)c2)CC1 [I-41] | 8
COCCN1C(C)CN(c2cncc(-c3cn(-c4cc(C(=O)Nc5cc(C(C)(C)C)on5)ccc4C)nn3)c2)CC1C (stereo not drawn) [I-45] | 29
Cc1ccc(C(=O)Nc2cc(C(F)(F)F)ccn2)cc1-n1cc(-c2cncc(N(C)CCN(C)C)c2)nn1 [I-86] | 10
Cc1ccc(C(=O)Nc2cc(C(F)(F)F)ccn2)cc1-n1cc(-c2cncc(N(C)C)c2)nn1 [I-62] | 24
Cc1ccc(C(=O)Nc2cc(C(C)(C)C)on2)cc1-n1cc(-c2cncc(N3CCC3)c2)nn1 [I-19] | 11
Cc1ccc(C(=O)Nc2cc(C(C)(C)C)on2)cc1-n1cc(-c2cncc(NC3CCCC3)c2)nn1 [I-43] | 38
Cc1ccc(C(=O)Nc2cc(C(C)(C)C)on2)cc1-n1cc(-c2cncc(NCCN(C)C)c2)nn1 [I-46] | 7
Cc1ccc(C(=O)Nc2cc(C(C)(C)C)ccn2)cc1-n1cc(-c2cncc(N3CCN(C)CC3)c2)nn1 [I-2] | 18

Now from value to compound:

IC50 [nM] | Structure (SMILES)
8 | Cc1ccc(NC(=O)c2cc(C(C)(C)C)nn2C)cc1-n1cc(-c2cncc(N3CCN(C)CC3)c2)nn1 [II-6]
10 | CCOCCN1CCN(c2cncc(-c3cn(-c4cc(NC(=O)c5ccc(C(C)(C)C)s5)ccc4C)nn3)c2)CC1 [II-28]
13 | Cc1ccc(NC(=O)c2cc(C)n(C(C)(C)C)n2)cc1-n1cc(-c2cncc(N3CCN(C(C)C)CC3)c2)nn1 [II-36]
9 | Cc1ccc(NC(=O)c2cc(C(F)(F)F)ccn2)cc1-n1cc(-c2cncc(N3CCOCC3)c2)nn1 [II-1]

From patent US9290507B2, “B-RAF kinase inhibitors” (Boehringer Ingelheim International GmbH, priority 2010, dated 2016)
